Biological target: T1, AidH (Ochrobactrum sp. T63, UniProt D2J2T6)
T1 construct: full length (251 residues), pET22b(+), C-terminal His tag, E. coli BL21(DE3); monomer in solution; alpha/beta-hydrolase, metal-independent
T1 sequence (D2J2T6 1-271): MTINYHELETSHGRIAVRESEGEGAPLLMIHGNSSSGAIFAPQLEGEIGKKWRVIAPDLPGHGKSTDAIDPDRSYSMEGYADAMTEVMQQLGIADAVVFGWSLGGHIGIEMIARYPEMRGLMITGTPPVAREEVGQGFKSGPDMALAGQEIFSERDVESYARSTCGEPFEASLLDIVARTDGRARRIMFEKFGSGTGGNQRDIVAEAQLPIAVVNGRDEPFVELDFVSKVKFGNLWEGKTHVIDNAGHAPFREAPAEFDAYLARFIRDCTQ
Assay: X-ray crystal structure, […] A, soaked crystal
Format: binding
Conditions: product of C4-HSL hydrolysis; active site, hydrogen bonds to Ser102, His248, Tyr160

CCCC(=O)N[C@@H](CCO)C(=O)O [C4-HS, N-butanoyl homoserine]
X-ray crystal structure, 1.09 A, soaked crystal: crystal structure of wild-type AidH complexed with the product C4-HS (AidH–C4-HS) was determined
